Measurements taken from patent US12419839B2, “Methods and compositions for targeted delivery of protein fragments” (Signablok, Inc., priority 2009, dated 2025).
Where no end group is shown, it is not given here.

Experiments:
[1] = system: A549 xenograft; assay: A549 xenograft mouse model of NSCLC; assay type: in vivo; settings: compared to the vehicle-treated group
Source text: FIG. 16 presents exemplary data showing that in drug-containing synthetic (recombinant) HDL (SLP, LPC), apolipoprotein can be replaced by synthetic apolipoprotein fragments without compromising the drug antitumor activity in an animal model. Bars, SEM. For statistical analysis, each treatment was compared with the vehicle control using Student's t test. **, P 0.001 to 0.01. Abbreviations: apo, apolipoprotein; HDL, high density lipoproteins; HDL (A-Iox), HDL with oxidized human apo A-I; HDL (PE22ox+PA22ox), HDL with a 1:1 mixture of synthetic peptides PE22ox and PA22ox that correspond to apo A-I helixes 4 and 6, respectively (SEE FIG. 12); dHDL and sHDL, discoidal and spherical HDL, respectively; LPC, lipoprotein/lipopeptide complexes; NSCLC, non-small cell lung cancer; PTX, paclitaxel; SLP, synthetic lipoprotein/lipopeptide particles; TREM-1, triggering receptor expressed on myeloid cells-1.
See, FIGS. 15 and 16. Here, A549 cells were injected subcutaneously into nude mice and randomized into treatment groups (n=10) once tumors reached an average of 200 mm^3. The treatment groups were: i) Vehicle (HDL containing no GF9); ii) paclitaxel (PTX) as a positive control; iii) GF9-dHDL (A-Iox); iv) GF9-sHDL (A-Iox); v) GF9-dHDL(PE22ox+PA22ox); and vi) GF9-sHDL(PE22ox+PA22ox) where each group received intraperitoneal injections twice a week. […]

[2] = system: mice with CIA; settings: sHDL-bound MG11 2.5 mg/kg
[3] = system: GM-CSF, IFNγ, IL-1β, IL-2, IL-6, IL-17, M-CSF and TNFα; assay: serum cytokines in mice with CIA; assay type: in vivo; settings: serum on day 38; MG11 and MG11-2G 25 mg/kg, sHDL-bound MG11 2.5 mg/kg; vs vehicle

`CC(=O)O[C@H]1C(=O)[C@@]2(C)[C@H]([C@H](OC(=O)c3ccccc3)[C@]3(O)C[C@H](OC(=O)[C@H](O)[C@@H](NC(=O)c4ccccc4)c4ccccc4)C(C)=C1C3(C)C)[C@]1(OC(C)=O)CO[C@@H]1C[C@@H]2O` [PTX, paclitaxel] was tested, and the “post necropsy excised tumors weights” value [1] was “significantly lower”.
In the case of “MWGTPTLGYFG [MG11-2G, free control peptide]”, the “clinical severity of CIA” value ([2]; i.p. daily for 14 days from day 24, MG11 and MG11-2G 25 mg/kg, vs vehicle) is reported as “no effect” and the serum cytokine release [3] is reported as “no effect”.
With MWKTPTLKYFG [free MG11, MWKTPTLKYFG] the body weight ([2]; i.p. daily for 14 days, MG11 25 mg/kg) was “without affecting body weight”.
